Laboratory results as given in patent US20260022143A1, “Cyclic Peptide Inhibitors of IL-23” (JANSSEN PHARMACEUTICA NV, priority 2022, published 2026).
Starred links: 1 amine or outer side, 2 acyl side, 3 side chain; linkers in the order of their positions; H or OH if unused. Positions of bridges follow the written chain, without caps; N, C: chain ends. Non-standard residues stand in square brackets, D forms with d. Residues, ends and D or L forms follow the SMILES beside them. *: point of attachment. Trp(7-(3-AcNH-Ph)) = CC(=O)Nc1cccc(-c2cccc3c(C[C@H](N)C(=O)O)c[nH]c23)c1; X13 = C[N+]1(Cc2cn(-c3ccc(C[C@H](N[*:1])C(=O)[*:2])cc3)nn2)CCOCC1; X51 = C[N+](C)(C)CCCc1cn(-c2ccc(C[C@H](N[*:1])C(=O)[*:2])cc2)nn1; X27 = C[N+](C)(C)CCc1cn(-c2ccc(C[C@H](N[*:1])C(=O)[*:2])cc2)nn1; Me3N+(CH2)2O(CH2)2O(CH2)2CO = C[N+](C)(C)CCOCCOCCC(=O)*; CH2CH2OCH2CH2OCH2CH2NMe3+ = C[N+](C)(C)CCOCCOCC*; Trp(7-Me) = Cc1cccc2c(C[C@H](N)C(=O)O)c[nH]c12; dLys(Me3) = C[N+](C)(C)CCCC[C@@H](N)C(=O)O; 2Nal = N[C@@H](Cc1ccc2ccccc2c1)C(=O)O; AEF = NCCOc1ccc(C[C@H](N)C(=O)O)cc1; 3Pal = N[C@@H](Cc1cccnc1)C(=O)O; Lys(Me) = CNCCCC[C@H](N)C(=O)O; X53 = C[N+]1(CCOCCOCC*)CCOCC1; Pen = CC(C)(S)[C@H](N)C(=O)O; X8 = C[N+](C)(C)CCCCCCCC*; Thp = NC1(C(=O)O)CCOCC1; X3 = C[N+](C)(C)CCCCC*; Sar = CNCC(=O)O

What was measured:
[1] = biological target: T1, IL-23R (Homo sapiens, UniProt Q5VWK5); test: IL23R Reporter Assay; type: cell-based; conditions: HEK293 cells containing IL-23R, IL-12RP1 and STAT-inducible firefly luciferase reporter; 10 ng/mL IL-23 (EC90); 5 h at 37° C.; read-out: IL23R Reporter Assay
T1 construct: host or cells: HEK293
T1 sequence (Q5VWK5 24-629): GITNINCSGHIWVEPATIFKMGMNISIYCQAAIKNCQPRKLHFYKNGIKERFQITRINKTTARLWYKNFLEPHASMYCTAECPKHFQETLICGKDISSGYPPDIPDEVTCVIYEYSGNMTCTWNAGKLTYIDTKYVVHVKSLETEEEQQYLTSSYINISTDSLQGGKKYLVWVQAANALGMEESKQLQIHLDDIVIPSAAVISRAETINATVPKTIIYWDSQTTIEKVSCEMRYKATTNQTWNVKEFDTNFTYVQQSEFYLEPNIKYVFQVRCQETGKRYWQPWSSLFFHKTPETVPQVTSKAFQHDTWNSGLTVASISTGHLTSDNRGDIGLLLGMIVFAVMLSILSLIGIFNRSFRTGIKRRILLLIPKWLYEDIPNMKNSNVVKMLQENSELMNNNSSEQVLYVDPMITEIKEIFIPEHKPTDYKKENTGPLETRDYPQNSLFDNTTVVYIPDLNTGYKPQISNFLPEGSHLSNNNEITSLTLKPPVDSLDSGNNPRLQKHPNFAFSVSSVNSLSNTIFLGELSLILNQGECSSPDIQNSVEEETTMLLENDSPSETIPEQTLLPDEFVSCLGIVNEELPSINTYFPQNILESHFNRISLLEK

[2] = Exposed Polar Surface Area (EPSA); type: physicochemical; conditions: SFC on Chirex 3014 column; sample 1 mM DMSO stock; read-out: EPSA
Procedure, shortened: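 Chirex 3014 column, 35 °C, 4 mL/min; CO2/MeOH + 20 mM NH4 formate, 5→60% modifier at 20%/min. UV/MS detection. EPSA (Å^2) from retention time vs 8-standard calibration line; duplicates; 1 mM DMSO stock injected undiluted.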

Structure (SMILES) | IC50 [1] [nM] | EPSA [2] [A^2]
CC(=O)NCCCC[C@@H]1NC(=O)[C@H](Cc2c[nH]c3c(-c4cccc(NC(C)=O)c4)cccc23)NC(=O)[C@H]([C@@H](C)O)NC(=O)[C@H](CC(N)=O)NC(=O)[C@@H](NC(=O)[C@@H](CCCC[N+](C)(C)C)NC(C)=O)C(C)(C)SSC(C)(C)[C@@H](C(=O)N[C@@H](Cc2ccc(OCCCCC[N+](C)(C)C)cc2)C(=O)N[C@@H](Cc2ccc3ccccc3c2)C(=O)NC2(C(=O)N[C@@H](CCC(=O)O)C(=O)N[C@@H](CC(N)=O)C(=O)N[C@@H](Cc3cccnc3)C(=O)N(C)CC(N)=O)CCOCC2)NC1=O [compound 448, MeCO-k(Me)3-Pen(3)-N-T-7(3NAcPh)W-K(Ac)-Pen(3)-TMAPF-2Nal-THP-E-N-3Pya-Sar-CONH2] (Ac-[dLys(Me3)][Pen]NT[Trp(7-(3-AcNH-Ph))]K(Ac)[Pen]Y(X3)[2Nal][Thp]EN[3Pal][Sar]-NH2; disulfide 2-7) | 2 | 176
CC(=O)NCCCC[C@@H]1NC(=O)[C@H](Cc2c[nH]c3c(-c4cccc(NC(C)=O)c4)cccc23)NC(=O)[C@H]([C@@H](C)O)NC(=O)[C@H](CC(N)=O)NC(=O)[C@@H](NC(C)=O)C(C)(C)SSC(C)(C)[C@@H](C(=O)N[C@@H](Cc2ccc(OCCCCC[N+](C)(C)C)cc2)C(=O)N[C@@H](Cc2ccc3ccccc3c2)C(=O)NC2(C(=O)N[C@@H](CCC(=O)O)C(=O)N[C@@H](CC(N)=O)C(=O)N[C@@H](Cc3cccnc3)C(=O)N(C)CC(N)=O)CCOCC2)NC1=O [compound 451, MeCO-Pen(3)-N-T-7(3NAcPh)W-K(Ac)-Pen(3)-TMAPF-2Nal-THP-E-N-3Pya-Sar-CONH2] (Ac-[Pen]NT[Trp(7-(3-AcNH-Ph))]K(Ac)[Pen]Y(X3)[2Nal][Thp]EN[3Pal][Sar]-NH2; disulfide 1-6) | 1.5 | 172
CC(=O)NCCCC[C@@H]1NC(=O)[C@H](Cc2c[nH]c3c(C)cccc23)NC(=O)[C@H]([C@@H](C)O)NC(=O)[C@H](CC(N)=O)NC(=O)[C@@H](NC(C)=O)C(C)(C)SSC(C)(C)[C@@H](C(=O)N[C@@H](Cc2ccc(-n3cc(CC[N+](C)(C)C)nn3)cc2)C(=O)N[C@@H](Cc2ccc3ccccc3c2)C(=O)NC2(C(=O)N[C@@H](CCC(=O)O)C(=O)N[C@@H](CC(N)=O)C(=O)N[C@@H](Cc3cccnc3)C(=O)N(C)CC(N)=O)CCOCC2)NC1=O [compound 454] (Ac-[Pen]NT[Trp(7-Me)]K(Ac)[Pen][X27][2Nal][Thp]EN[3Pal][Sar]-NH2; disulfide 1-6 (inferred)) | 2.1 | 176
CC(=O)NCCCC[C@@H]1NC(=O)[C@H](Cc2c[nH]c3c(C)cccc23)NC(=O)[C@H]([C@@H](C)O)NC(=O)[C@H](CC(N)=O)NC(=O)[C@@H](NC(C)=O)C(C)(C)SSC(C)(C)[C@@H](C(=O)N[C@@H](Cc2ccc(OCCOCCOCC[N+]3(C)CCOCC3)cc2)C(=O)N[C@@H](Cc2ccc3ccccc3c2)C(=O)NC2(C(=O)N[C@@H](CCCCNC(C)=O)C(=O)N[C@@H](CC(N)=O)C(=O)N[C@@H](Cc3cccnc3)C(=O)N(C)CC(N)=O)CCOCC2)NC1=O [compound 455] (Ac-[Pen]NT[Trp(7-Me)]K(Ac)[Pen]Y(X53)[2Nal][Thp]K(Ac)N[3Pal][Sar]-NH2; disulfide 1-6) | 2.1 | 158
CC(=O)NCCCC[C@@H]1NC(=O)[C@H](Cc2c[nH]c3c(C)cccc23)NC(=O)[C@H]([C@@H](C)O)NC(=O)[C@H](CC(N)=O)NC(=O)[C@@H](NC(C)=O)C(C)(C)SSC(C)(C)[C@@H](C(=O)N[C@@H](Cc2ccc(OCCCCCCCC[N+](C)(C)C)cc2)C(=O)N[C@@H](Cc2ccc3ccccc3c2)C(=O)NC2(C(=O)N[C@@H](CCCCNC(C)=O)C(=O)N[C@@H](CC(N)=O)C(=O)N[C@@H](Cc3cccnc3)C(=O)N(C)CC(N)=O)CCOCC2)NC1=O [compound 456] (Ac-[Pen]NT[Trp(7-Me)]K(Ac)[Pen]Y(X8)[2Nal][Thp]K(Ac)N[3Pal][Sar]-NH2; disulfide 1-6 (inferred)) | 1.5 | 156
CC(=O)NCCCC[C@@H]1NC(=O)[C@H](Cc2c[nH]c3c(C)cccc23)NC(=O)[C@H]([C@@H](C)O)NC(=O)[C@H](CC(N)=O)NC(=O)[C@@H](NC(C)=O)C(C)(C)SSC(C)(C)[C@@H](C(=O)N[C@@H](Cc2ccc(-n3cc(CCC[N+](C)(C)C)nn3)cc2)C(=O)N[C@@H](Cc2ccc3ccccc3c2)C(=O)NC2(C(=O)N[C@@H](CCC(=O)O)C(=O)N[C@@H](CC(N)=O)C(=O)N[C@@H](Cc3cccnc3)C(=O)N(C)CC(N)=O)CCOCC2)NC1=O [compound 458] (Ac-[Pen]NT[Trp(7-Me)]K(Ac)[Pen][X51][2Nal][Thp]EN[3Pal][Sar]-NH2; disulfide 1-6 (inferred)) | 2.6 | 172
CC(=O)NCCCC[C@@H]1NC(=O)[C@H](Cc2c[nH]c3c(C)cccc23)NC(=O)[C@H]([C@@H](C)O)NC(=O)[C@H](CC(N)=O)NC(=O)[C@@H](NC(C)=O)C(C)(C)SSC(C)(C)[C@@H](C(=O)N[C@@H](Cc2ccc(-n3cc(C[N+]4(C)CCOCC4)nn3)cc2)C(=O)N[C@@H](Cc2ccc3ccccc3c2)C(=O)NC2(C(=O)N[C@@H](CCC(=O)O)C(=O)N[C@@H](CC(N)=O)C(=O)N[C@@H](Cc3cccnc3)C(=O)N(C)CC(N)=O)CCOCC2)NC1=O [compound 459] (Ac-[Pen]NT[Trp(7-Me)]K(Ac)[Pen][X13][2Nal][Thp]EN[3Pal][Sar]-NH2; disulfide 1-6 (inferred)) | 1.8 | 178
CC(=O)NCCCC[C@@H]1NC(=O)[C@H](Cc2c[nH]c3c(-c4cccc(NC(C)=O)c4)cccc23)NC(=O)[C@H]([C@@H](C)O)NC(=O)[C@H](CC(N)=O)NC(=O)[C@@H](NC(=O)[C@@H](CCCC[N+](C)(C)C)NC(C)=O)C(C)(C)SSC(C)(C)[C@@H](C(=O)N[C@@H](Cc2ccc(OCCN)cc2)C(=O)N[C@@H](Cc2ccc3ccccc3c2)C(=O)NC2(C(=O)N[C@@H](CCC(=O)O)C(=O)N[C@@H](CC(N)=O)C(=O)N[C@@H](Cc3cccnc3)C(=O)N(C)CC(N)=O)CCOCC2)NC1=O [compound 461] (Ac-[dLys(Me3)][Pen]NT[Trp(7-(3-AcNH-Ph))]K(Ac)[Pen][AEF][2Nal][Thp]EN[3Pal][Sar]-NH2; disulfide 2-7 (inferred)) | 1.4 | 192
CC(=O)N(C)CCCC[C@H](NC(=O)[C@H](CC(C)C)NC(=O)[C@H](Cc1ccc2ccccc2c1)NC(=O)[C@H](Cc1ccc(OCCOCCOCC[N+](C)(C)C)cc1)NC(=O)[C@H]1NC(=O)[C@H](CC(C)C)NC(=O)[C@H](Cc2c[nH]c3c(C)cccc23)NC(=O)[C@H]([C@@H](C)O)NC(=O)[C@H](CC(C)C)NC(=O)[C@@H](NC(=O)CCOCCOCC[N+](C)(C)C)C(C)(C)SSC1(C)C)C(=O)N[C@@H](CC(N)=O)C(=O)N[C@@H](Cc1cccnc1)C(=O)N(C)CC(=O)N(C)C [compound 463, cPEG3aCO-Pen(3)-L-T-7MeW-L-Pen(3)-APEG3f-2Nal-L-K(NMeAc)-N-3Pya-Sar-CON(Me)2] ({Me3N+(CH2)2O(CH2)2O(CH2)2CO}-[Pen]LT[Trp(7-Me)]L[Pen]Y(CH2CH2OCH2CH2OCH2CH2NMe3+)[2Nal]L[Lys(Me)](Ac)N[3Pal][Sar]-NMe2; disulfide 1-6) | 9 | 151
CC(=O)N(C)CCCC[C@H](NC(=O)[C@H](Cc1ccccc1)NC(=O)[C@H](Cc1ccc2ccccc2c1)NC(=O)[C@H](Cc1ccc(OCCOCCOCC[N+](C)(C)C)cc1)NC(=O)[C@H]1NC(=O)[C@H](Cc2ccccc2)NC(=O)[C@H](Cc2c[nH]c3c(C)cccc23)NC(=O)[C@H]([C@@H](C)O)NC(=O)[C@H](Cc2ccccc2)NC(=O)[C@@H](NC(=O)CCOCCOCC[N+](C)(C)C)C(C)(C)SSC1(C)C)C(=O)N[C@@H](CC(N)=O)C(=O)N[C@@H](Cc1cccnc1)C(=O)N(C)CC(=O)N(C)C [compound 464, cPEG3aCO-Pen(3)-F-T-7MeW-F-Pen(3)-APEG3f-2Nal-F-K(NMeAc)-N-3Pya-Sar-CON(Me)2] ({Me3N+(CH2)2O(CH2)2O(CH2)2CO}-[Pen]FT[Trp(7-Me)]F[Pen]Y(CH2CH2OCH2CH2OCH2CH2NMe3+)[2Nal]F[Lys(Me)](Ac)N[3Pal][Sar]-NMe2; disulfide 1-6) | 30 | 160
CC(=O)N(C)CCCC[C@@H]1NC(=O)[C@H](Cc2c[nH]c3c(C)cccc23)NC(=O)[C@H]([C@@H](C)O)NC(=O)[C@H](CC(=O)N(C)C)NC(=O)[C@@H](NC(=O)CCOCCOCC[N+](C)(C)C)C(C)(C)SSC(C)(C)[C@@H](C(=O)N[C@@H](Cc2ccc(OCCOCCOCC[N+](C)(C)C)cc2)C(=O)N[C@@H](Cc2ccc3ccccc3c2)C(=O)NC2(C(=O)N[C@@H](C)C(=O)N[C@@H](CC(N)=O)C(=O)N[C@@H](Cc3cccnc3)C(=O)N(C)CC(=O)N(C)C)CCOCC2)NC1=O [compound 466, cPEG3aCO-Pen(3)-N(N(Me)2)-T-7MeW-K(NMeAc)-Pen(3)-APEG3F-2Nal-THP-A-N-3Pya-Sar-CON(Me)2] ({Me3N+(CH2)2O(CH2)2O(CH2)2CO}-[Pen]D(NMe2)T[Trp(7-Me)][Lys(Me)](Ac)[Pen]Y(CH2CH2OCH2CH2OCH2CH2NMe3+)[2Nal][Thp]AN[3Pal][Sar]-NMe2; disulfide 1-6) | 1.8 | 153
